Experimental data: article PMC10916382, “Repurposing screen identifies novel candidates for broad-spectrum coronavirus antivirals and druggable host targets” (Antimicrobial Agents and Chemotherapy, 2024)
Structures can show the parent of a compound that is named as a salt. Where two headings read alike, the source gives them in different places. Where a SMILES comes first, the peptide text is derived from it. The star is where a group is joined. Cbz = O=C(OCc1ccccc1)*; CHN2 = [N-]=[N+]=C*

Key:
[1] = tested on: Huh-7.5/F-Luc cells; settings: for % cell viability at max. dose [5 µM]: at max. dose 5 µM
[2] = tested on: HCoV-229E; experiment: microbe, parasite or virus in culture; assay type: cell-based, Homo sapiens sapiens
[3] = tested on: SARS-CoV-2
[4] = in vitro
[5] = Huh-7.5 cells, dose series, maximum tested dose 5 µM
[6] = Calu-3 cells, immunofluorescence imaging
[7] = Anti-SARS-CoV-2 screening on Calu-3 cells: viability [% of control], Calu-3 cells
[8] = Human coronavirus 229E, Huh7.5, read-out: IC50
[9] = HCoV 229E infection, dose series, max. dose 5 µM, read-out: IC50

Row | SMILES | CC50 (µM) [1, 5] | IC50 ([2]; Human coronavirus 229E, Huh7.5) | Anti-SARS-CoV-2 screening on Calu-3 cells: intracellular SARS-CoV-2 infection measured via immunofluorescence imaging [% of control] [3, 6] | viability at 48 h, 5 µM [4] | % cell viability at max. dose [5 µM] [1] | IC50 [2, 9] | Anti-SARS-CoV-2 screening on Calu-3 cells: viability [% of control] ([3]; Calu-3 cells) | further results
1 | CC1=C(c2ccc(O)cc2)[C@H](c2ccc(OCCN3CCCCC3)cc2)Oc2cc(O)ccc21 [ACOLBIFENE] | greater than maximum tested dose | 990 nM | 111.23 % of control | 88% |  |  |  | 
2 | CC/C(=C(\c1ccc(O)cc1)c1ccc(OCCN(C)C)cc1)c1ccccc1 [Afimoxifene] | greater than maximum tested dose | 630 nM | 100.60 % of control |  |  |  |  | viability [4, 7]: 93.4%
3 | CO[C@@H]1[C@H](O)C[C@@H](O[C@@H]2C[C@H](Oc3cc4cc5c(c(O)c4c(O)c3C)C(=O)[C@@H](O[C@H]3C[C@@H](O[C@H]4C[C@@H](O[C@H]6C[C@](C)(O)[C@@H](OC(C)=O)[C@H](C)O6)[C@H](O)[C@@H](C)O4)[C@H](O)[C@@H](C)O3)[C@H]([C@H](OC)C(=O)[C@@H](O)[C@@H](C)O)C5)O[C@H](C)[C@@H]2OC(C)=O)O[C@@H]1C [CHROMOMYCIN A3] | greater than maximum tested dose |  | 60.39 % of control |  |  |  |  | IC50 [2, 8]: 160 nM; viability [4, 7]: 61.3%
4 | CCN(CC)CCN(Cc1ccc(-c2ccc(C(F)(F)F)cc2)cc1)C(=O)Cn1c(SCc2ccc(F)cc2)nc(=O)c2c1CCC2 [Darapladib] | greater than maximum tested dose | 300 nM | 107.62 % of control | 103% |  |  |  | 
5 | CS[C@H]1SC[C@H]2C(=O)N(C)[C@@H](C(C)C)C(=O)OC[C@@H](NC(=O)c3cnc4ccccc4n3)C(=O)N[C@@H](C)C(=O)N(C)[C@@H]1C(=O)N(C)[C@@H](C(C)C)C(=O)OC[C@@H](NC(=O)c1cnc3ccccc3n1)C(=O)N[C@@H](C)C(=O)N2C [Echinomycin] | greater than maximum tested dose |  | 92.25 % of control |  |  |  |  | IC50 [2, 8]: 100 nM; viability [4]: 95.2%
6 | CN(C)c1ccc(C(=C2C=CC(=[N+](C)C)C=C2)c2ccc(N(C)C)cc2)cc1 [Gentian violet, reference compound] | greater than maximum tested dose | 120 nM | 6.34 % of control | 101% |  |  |  | total cell numbers ([3]; Calu-3 cells, 5 µM, DAPI, relative to DMSO): ≥ 75%; reduction of infected cell numbers ([3]; Calu-3 cells, 5 µM, N protein immunofluorescence, relative to DMSO): more than 50%
7 | CNC1CC(c2ccc(Cl)c(Cl)c2)c2ccccc21 (stereo not drawn) [Indatraline] | greater than maximum tested dose |  | 97.64 % of control |  |  |  |  | IC50 [2, 8]: 830 nM; viability [4, 7]: 88.1%
8 | CN1CCC(c2cn(C)c3ccc(OS(=O)(=O)c4c(F)cccc4F)cc23)CC1 [LY-483518] | greater than maximum tested dose | 1030 nM | 109.16 % of control | 111% |  |  |  | 
9 | Oc1ccc2c(c1)CC[C@H](c1ccccc1)[C@@H]2c1ccc(OCCN2CCCC2)cc1 [Lasofoxifene] | greater than maximum tested dose | 750 nM | 119.41 % of control |  |  |  |  | viability [4, 7]: 92.8%
10 | CC(C)(C)NCc1ccc(Nc2ccnc3cc(Cl)ccc23)cc1O [N-tert-Butylisoquine] | greater than maximum tested dose | 540 nM | 111.10 % of control |  |  |  |  | viability [4, 7]: 106%
11 | COc1cccc2c1C(=O)c1c(O)c3c(c(O)c1C2=O)C[C@@](O)(C(=O)CO)C[C@@H]3O[C@H]1C[C@H](N2CCO[C@H](OC)C2)[C@H](O)[C@H](C)O1 [NEMORUBICIN] | greater than maximum tested dose |  | 46.15 % of control |  |  |  |  | IC50 [2, 8]: 170 nM; viability [4]: 16.5%
12 | C1CCC(C(CC2CCCCN2)C2CCCCC2)CC1 (stereo not drawn) [PERHEXILINE] | greater than maximum tested dose | 670 nM | 116.50 % of control | 97% |  |  |  | 
13 | Cc1nc2c(N3CCNCC3)cccc2n1S(=O)(=O)c1ccccc1 [PF-5212377] | greater than maximum tested dose | 1150 nM | 99.72 % of control |  |  |  |  | viability [4, 7]: 104%
14 | COc1ccc2cc(S(=O)(=O)N[C@H](CC(=O)N[C@H](Cc3ccc(CN4[C@H](C)CCC[C@@H]4C)cc3)C(=O)N(C)C(C)C)c3ccc4c(c3)OCO4)ccc2c1 [SSR240612] | greater than maximum tested dose |  | 125.70 % of control |  | 127.22% | 530 nM | 108.83 % of control | 
15 | COc1cc(/C=C/C=C/C(=O)NCCN2CCC(OC(c3ccccc3)c3ccccc3)CC2)ccc1O [TMK-777] | greater than maximum tested dose |  | 102.42 % of control |  | 150.43% | 1130 nM | 98.98 % of control | 
16 | CC/C(=C(\c1ccccc1)c1ccc(OCCN(C)C)cc1)c1ccccc1 [Tamoxifen citrate] |  |  |  | 102% |  |  |  | CC50 (µM) [1]: greater than maximum tested dose; Anti-SARS-CoV-2 screening on Calu-3 cells: intracellular SARS-CoV-2 infection measured via immunofluorescence imaging [% of control] [3]: 106.52 % of control
17 | Cc1cccc(/C=N/Nc2cc(N3CCOCC3)nc(OCCc3ccccn3)n2)c1 [Target 16/Apilimod mesilate] | greater than maximum tested dose |  | 135.01 % of control |  | 124.74% | 200 nM | 101.93 % of control | 
18 | CC[C@H](NC(=O)[C@H](CS(=O)(=O)CC1CC1)N[C@@H](c1ccc(F)cc1)C(F)(F)F)C(=O)C(=O)NC1CC1 [VBY-825, reference compound] | greater than maximum tested dose |  | 101.42 % of control |  | 147.45% | 210 nM | 100.68 % of control | antiviral activity against HCoV-229E ([2]; Huh-7.5/F-Luc cells): antiviral activity
19 | CN(C)CCC(Sc1cccc2ccccc12)c1cccs1 (stereo not drawn) [VUFB 18271] | greater than maximum tested dose |  | 114.60 % of control |  | 117.62% | 930 nM | 105.83 % of control | 
20 | CC(C)c1ccc(C(=O)c2cccs2)c(SCCCCCCCCN(C)C)n1 [Y 29794] | greater than maximum tested dose |  | 99.31 % of control |  | 121.37% | 330 nM | 88.61 % of control | 
21 | COC(=O)C1=C(C)NC(C)=C(C(=O)OCCCCNC[C@H](O)COc2ccccc2)C1c1cccc([N+](=O)[O-])c1 (stereo partly drawn) [YM 430] | greater than maximum tested dose |  | 99.21 % of control |  | 137.51% | 820 nM | 101.27 % of control | 
22 | C=CCc1c(OCCCNCc2ccccc2)ccc2c1[nH]c1ccccc12 [YM-75440] | greater than maximum tested dose |  | 109.36 % of control |  | 65.35% | 730 nM | 100.37 % of control | 
23 | CC(C)CC(NC(=O)OCc1ccccc1)C(=O)NC(C(=O)NCC(=O)C=[N+]=[N-])C(C)C (stereo not drawn) [Z LVG CHN2] (Cbz-Leu-Val-Gly-CHN2; configuration not given here) | greater than maximum tested dose |  | 105.09 % of control |  | 182.31% |  | 97.82 % of control | IC50 ([2]; read-out: IC50): 70 nM
24 | CCN(CC)CCOc1ccc(/C(=C(/Cl)c2ccccc2)c2ccccc2)cc1 [enclomiphene citrate] |  |  |  | 102% |  |  |  | CC50 (µM) [1]: greater than maximum tested dose; Anti-SARS-CoV-2 screening on Calu-3 cells: intracellular SARS-CoV-2 infection measured via immunofluorescence imaging [% of control] [3]: 91.35 % of control
25 | CC(C)c1ccc2c(c1)C(N1CCN(CCO)CC1)Cc1ccc(F)cc1S2 (stereo not drawn) [isofloxythepin] | greater than maximum tested dose |  | 105.07 % of control |  | 141.51% | 790 nM | 97.70 % of control | 
26 | CN[C@H]1CC[C@@H](c2ccc(Cl)c(Cl)c2)c2ccccc21 [sertraline hydrochloride] |  |  |  | 101% |  |  |  | CC50 (µM) [1]: greater than maximum tested dose; Anti-SARS-CoV-2 screening on Calu-3 cells: intracellular SARS-CoV-2 infection measured via immunofluorescence imaging [% of control] [3]: 122.16 % of control
